{"source": "PubChem BioAssay (NCI)", "experiment_in_all_cases": "NCI tumour cell line growth inhibition, 48 h", "key": {"EKVX NSCLC": {"tested_on": "EKVX NSCLC"}, "SK-OV-3 ovarian": {"tested_on": "SK-OV-3 ovarian"}, "ACHN renal": {"tested_on": "ACHN renal"}, "UACC-257 melanoma": {"tested_on": "UACC-257 melanoma"}, "HOP-92 NSCLC": {"tested_on": "HOP-92 NSCLC"}, "UACC-62 melanoma": {"tested_on": "UACC-62 melanoma"}, "NCI-H226 lung": {"tested_on": "NCI-H226 lung"}, "M19-MEL melanoma": {"tested_on": "M19-MEL melanoma"}, "IGROV1 ovarian": {"tested_on": "IGROV1 ovarian"}, "K-562 leukemia": {"tested_on": "K-562 leukemia"}, "HCC-2998 colon": {"tested_on": "HCC-2998 colon"}, "LXFL 529 NSCLC": {"tested_on": "LXFL 529 NSCLC"}, "UO-31 renal": {"tested_on": "UO-31 renal"}, "A498 renal": {"tested_on": "A498 renal"}, "SF-268 CNS": {"tested_on": "SF-268 CNS"}, "COLO 205 colon": {"tested_on": "COLO 205 colon"}, "OVCAR-4 ovarian": {"tested_on": "OVCAR-4 ovarian"}, "DMS 114 small cell lung": {"tested_on": "DMS 114 small cell lung"}, "SNB-75 CNS": {"tested_on": "SNB-75 CNS"}, "HL-60(TB) leukemia": {"tested_on": "HL-60(TB) leukemia"}, "SN12C renal": {"tested_on": "SN12C renal"}, "NCI-H460 lung": {"tested_on": "NCI-H460 lung"}, "MALME-3M melanoma": {"tested_on": "MALME-3M melanoma"}, "RXF-631 renal": {"tested_on": "RXF-631 renal"}, "HCT-15 colon": {"tested_on": "HCT-15 colon"}, "XF 498 CNS": {"tested_on": "XF 498 CNS"}, "SK-MEL-5 melanoma": {"tested_on": "SK-MEL-5 melanoma"}, "M14 melanoma": {"tested_on": "M14 melanoma"}, "SK-MEL-28 melanoma": {"tested_on": "SK-MEL-28 melanoma"}, "A549 NSCLC": {"tested_on": "A549 NSCLC"}, "HT29 colon": {"tested_on": "HT29 colon"}, "HOP-62 NSCLC": {"tested_on": "HOP-62 NSCLC"}, "CAKI-1 renal": {"tested_on": "CAKI-1 renal"}, "KM20L2 colon": {"tested_on": "KM20L2 colon"}, "SW-620 colon": {"tested_on": "SW-620 colon"}, "LOX IMVI melanoma": {"tested_on": "LOX IMVI melanoma"}, "786-0 renal": {"tested_on": "786-0 renal"}, "KM12 colon": {"tested_on": "KM12 colon"}, "SK-MEL-2 melanoma": {"tested_on": "SK-MEL-2 melanoma"}, "OVCAR-5 ovarian": {"tested_on": "OVCAR-5 ovarian"}, "OVCAR-8 ovarian": {"tested_on": "OVCAR-8 ovarian"}, "RXF 393 renal": {"tested_on": "RXF 393 renal"}, "NCI-H522 lung": {"tested_on": "NCI-H522 lung"}, "RPMI-8226 leukemia": {"tested_on": "RPMI-8226 leukemia"}, "DMS 273 small cell lung": {"tested_on": "DMS 273 small cell lung"}, "CCRF-CEM leukemia": {"tested_on": "CCRF-CEM leukemia"}, "DLD-1 colon": {"tested_on": "DLD-1 colon"}, "U251 CNS": {"tested_on": "U251 CNS"}, "OVCAR-3 ovarian": {"tested_on": "OVCAR-3 ovarian"}, "SNB-19 CNS": {"tested_on": "SNB-19 CNS"}, "NCI-H23 lung": {"tested_on": "NCI-H23 lung"}, "TK-10 renal": {"tested_on": "TK-10 renal"}, "SF-295 CNS": {"tested_on": "SF-295 CNS"}, "HOP-18 NSCLC": {"tested_on": "HOP-18 NSCLC"}, "NCI/ADR-RES ovarian": {"tested_on": "NCI/ADR-RES ovarian"}, "SN12K1 renal": {"tested_on": "SN12K1 renal"}, "P388/ADR leukemia": {"tested_on": "P388/ADR leukemia"}, "SNB-78 CNS": {"tested_on": "SNB-78 CNS"}, "MDA-N": {"tested_on": "MDA-N"}, "P388 leukemia": {"tested_on": "P388 leukemia"}, "MCF7 breast": {"tested_on": "MCF7 breast"}}, "note": "Several values for one entry are separate records, joined by “and”; a condition that tells them apart may be missing. Equal values may be shown once.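 Values below derive from 48-hour exposures of cells grown in 96-well plates, with endpoints linearly interpolated between the two concentrations bracketing the appropriate inhibition level. Abbreviation: GI50, concentration required for 50% inhibition of growth. TGI: concentration producing complete growth inhibition.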"}
{"smiles": "C#CCOCn1cnc2c(Sc3c([N+](=O)[O-])ncn3C)ncnc21", "values": [{"measurement": "TGI", "setting": "EKVX NSCLC", "value": "> 100", "unit": "µM"}, {"measurement": "TGI", "setting": "SK-OV-3 ovarian", "value": "> 100", "unit": "µM"}, {"measurement": "TGI", "setting": "ACHN renal", "value": "> 100", "unit": "µM"}, {"measurement": "TGI", "setting": "UACC-257 melanoma", "value": "> 100", "unit": "µM"}, {"measurement": "TGI", "setting": "HOP-92 NSCLC", "value": "> 100", "unit": "µM"}, {"measurement": "TGI", "setting": "UACC-62 melanoma", "value": "> 100", "unit": "µM"}, {"measurement": "TGI", "setting": "NCI-H226 lung", "value": "> 100", "unit": "µM"}, {"measurement": "TGI", "setting": "M19-MEL melanoma", "value": "> 100", "unit": "µM"}, {"measurement": "TGI", "setting": "IGROV1 ovarian", "value": "> 100", "unit": "µM"}, {"measurement": "TGI", "setting": "K-562 leukemia", "value": "> 100", "unit": "µM"}, {"measurement": "TGI", "setting": "HCC-2998 colon", "value": "> 100", "unit": "µM"}, {"measurement": "TGI", "setting": "LXFL 529 NSCLC", "value": "> 100", "unit": "µM"}, {"measurement": "TGI", "setting": "UO-31 renal", "value": "> 100", "unit": "µM"}, {"measurement": "TGI", "setting": "A498 renal", "value": "> 100", "unit": "µM"}, {"measurement": "TGI", "setting": "SF-268 CNS", "value": "> 100", "unit": "µM"}, {"measurement": "TGI", "setting": "COLO 205 colon", "value": "> 100", "unit": "µM"}, {"measurement": "TGI", "setting": "OVCAR-4 ovarian", "value": "> 100", "unit": "µM"}, {"measurement": "TGI", "setting": "DMS 114 small cell lung", "value": "> 100", "unit": "µM"}, {"measurement": "TGI", "setting": "SNB-75 CNS", "value": 72.7, "unit": "µM"}, {"measurement": "TGI", "setting": "HL-60(TB) leukemia", "value": "> 100", "unit": "µM"}, {"measurement": "TGI", "setting": "SN12C renal", "value": "> 100", "unit": "µM"}, {"measurement": "TGI", "setting": "NCI-H460 lung", "value": "> 100", "unit": "µM"}, {"measurement": "TGI", "setting": "MALME-3M melanoma", "value": "> 100", "unit": "µM"}, {"measurement": "TGI", "setting": "RXF-631 renal", "value": "> 100", "unit": "µM"}, {"measurement": "TGI", "setting": "HCT-15 colon", "value": "> 100", "unit": "µM"}, {"measurement": "TGI", "setting": "XF 498 CNS", "value": "> 100", "unit": "µM"}, {"measurement": "TGI", "setting": "SK-MEL-5 melanoma", "value": "> 100", "unit": "µM"}, {"measurement": "TGI", "setting": "M14 melanoma", "value": "> 100", "unit": "µM"}, {"measurement": "TGI", "setting": "SK-MEL-28 melanoma", "value": "> 100", "unit": "µM"}, {"measurement": "TGI", "setting": "A549 NSCLC", "value": "> 100", "unit": "µM"}, {"measurement": "TGI", "setting": "HT29 colon", "value": "> 100", "unit": "µM"}, {"measurement": "TGI", "setting": "HOP-62 NSCLC", "value": "> 100", "unit": "µM"}, {"measurement": "TGI", "setting": "CAKI-1 renal", "value": "> 100", "unit": "µM"}, {"measurement": "TGI", "setting": "KM20L2 colon", "value": "> 100", "unit": "µM"}, {"measurement": "TGI", "setting": "SW-620 colon", "value": "> 100", "unit": "µM"}, {"measurement": "TGI", "setting": "LOX IMVI melanoma", "value": "> 100", "unit": "µM"}, {"measurement": "TGI", "setting": "786-0 renal", "value": "> 100", "unit": "µM"}, {"measurement": "TGI", "setting": "KM12 colon", "value": "> 100", "unit": "µM"}, {"measurement": "TGI", "setting": "SK-MEL-2 melanoma", "value": "> 100", "unit": "µM"}, {"measurement": "TGI", "setting": "OVCAR-5 ovarian", "value": "> 100", "unit": "µM"}, {"measurement": "TGI", "setting": "OVCAR-8 ovarian", "value": "> 100", "unit": "µM"}, {"measurement": "TGI", "setting": "RXF 393 renal", "value": "> 100", "unit": "µM"}, {"measurement": "TGI", "setting": "NCI-H522 lung", "value": "> 100", "unit": "µM"}, {"measurement": "TGI", "setting": "RPMI-8226 leukemia", "value": "> 100", "unit": "µM"}, {"measurement": "TGI", "setting": "DMS 273 small cell lung", "value": "> 100", "unit": "µM"}, {"measurement": "TGI", "setting": "CCRF-CEM leukemia", "value": "> 100", "unit": "µM"}, {"measurement": "TGI", "setting": "DLD-1 colon", "value": "> 100", "unit": "µM"}, {"measurement": "TGI", "setting": "U251 CNS", "value": "> 100", "unit": "µM"}, {"measurement": "TGI", "setting": "OVCAR-3 ovarian", "value": "> 100", "unit": "µM"}, {"measurement": "TGI", "setting": "SNB-19 CNS", "value": "> 100", "unit": "µM"}, {"measurement": "TGI", "setting": "NCI-H23 lung", "value": "> 100", "unit": "µM"}, {"measurement": "TGI", "setting": "TK-10 renal", "value": "> 100", "unit": "µM"}, {"measurement": "TGI", "setting": "SF-295 CNS", "value": "> 100", "unit": "µM"}]}
{"smiles": "CC(=O)O[C@H]1C(=O)[C@@]2(C)[C@H]([C@H](OC(=O)c3ccccc3)[C@]3(O)C[C@H](OC(=O)[C@H](O)[C@@H](NC(=O)c4ccccc4)c4ccccc4)C(C)=C1C3(C)C)[C@]1(OC(C)=O)CO[C@@H]1C[C@@H]2O", "values": [{"measurement": "TGI", "setting": "HOP-18 NSCLC", "value": 25, "unit": "µM"}, {"measurement": "TGI", "setting": "NCI/ADR-RES ovarian", "value": "15.1 µM and > 100 µM and 37.5 µM"}, {"measurement": "TGI", "setting": "SN12K1 renal", "value": 25, "unit": "µM"}, {"measurement": "GI50", "setting": "LXFL 529 NSCLC", "value": 0.00356, "unit": "µM"}, {"measurement": "TGI", "setting": "LXFL 529 NSCLC", "value": 55.2, "unit": "µM"}, {"measurement": "TGI", "setting": "DMS 114 small cell lung", "value": 0.0217, "unit": "µM"}, {"measurement": "TGI", "setting": "P388/ADR leukemia", "value": 25, "unit": "µM"}, {"measurement": "GI50", "setting": "SNB-78 CNS", "value": 0.087, "unit": "µM"}, {"measurement": "TGI", "setting": "SNB-78 CNS", "value": "24.3 µM and 45.1 µM"}, {"measurement": "TGI", "setting": "XF 498 CNS", "value": 0.0355, "unit": "µM"}, {"measurement": "TGI", "setting": "SK-MEL-28 melanoma", "value": "25 µM and > 71 µM"}, {"measurement": "TGI", "setting": "A549 NSCLC", "value": "25 µM and > 100 µM and 67.7 µM"}, {"measurement": "GI50", "setting": "MDA-N", "value": "0.0025 µM and 0.0231 µM"}, {"measurement": "TGI", "setting": "P388 leukemia", "value": 25, "unit": "µM"}, {"measurement": "TGI", "setting": "DMS 273 small cell lung", "value": 3.68, "unit": "µM"}, {"measurement": "TGI", "setting": "MCF7 breast", "value": "15.1 µM and 88.4 µM and 56.1 µM"}, {"measurement": "GI50", "setting": "DLD-1 colon", "value": 0.0551, "unit": "µM"}, {"measurement": "TGI", "setting": "DLD-1 colon", "value": "24.4 µM and > 100 µM"}]}
